Tested on: TIF-IA
Experiment: Two-dimensional tryptic phosphopeptide mapping of TIF-IA labeled in vivo in HEK293T cells
Format: cell-based, human
Conditions: serum-stimulated cells, 40 μM PD98059
Experimental: HEK293T cells were transfected with pcDNA3.1-FLAG-TIF-IA, starved for 12 hr and labeled for 4 hr with [^32P]orthophosphate. 30 min before harvesting, 10% dialyzed FCS was added and cells were incubated in the absence (left panel) or presence of 40 μM PD98059 (right panel). Immunopurified TIF-IA was subjected to two-dimensional phosphopeptide mapping.
(B) Tryptic peptide maps of TIF-IA phosphorylated in vivo. FLAG-tagged wild-type TIF-IA, TIF-IAS633A and TIF-IAS649A were expressed in HEK293T cells and labeled with [^32P]orthophosphate for 4 hr. TIF-IA was purified by immunoprecipitation and digested with trypsin. Phosphopeptides were separated on cellulose thin-layer plates and visualized by autoradiography. The sequence of the C-terminus of human TIF-IA (H.s.) and an alignment with the corresponding sequences from mouse (M.m.), Drosophila melanogaster (D.m.) and Saccharomyces pombe (S.p.) is shown above.
(A) Two-dimensional tryptic phosphopeptide maps of TIF-IA. HEK293T cells were transfected with FLAG-tagged TIF-IA and labeled for 2 hr with [^32P]orthophosphate in the absence (left) or presence (right) of 20 nM rapamycin. TIF-IA was immunopurified, digested with trypsin, separated on cellulose thin-layer plates and visualized by autoradiography.
(B) Tryptic phosphopeptide map of TIF-IAS44A phosphorylated in vivo. […]

COc1cccc(-c2cc(=O)c3ccccc3o2)c1N [PD98059]
labeling of TIF-IA phosphopeptide spots d, f and g: impaired
phosphorylation of TIF-IA phosphopeptide spots b and c: reduced

— patent publication US20060057669A1, “Inactive transcription factor tif-ia and uses thereof” (priority 2002, published 2006)
